Key:
Experiment in all cases: relative viability (nuclei count vs DMSO), 5 days (fraction); higher = more cells survive
Tosedostat + Lapatinib = compound: CC(C)C[C@@H](C(=O)N[C@H](C(=O)OC1CCCC1)c1ccccc1)[C@H](O)C(=O)NO [Tosedostat] + CS(=O)(=O)CCNCc1ccc(-c2ccc3ncnc(Nc4ccc(OCc5cccc(F)c5)c(Cl)c4)c3c2)o1 [Lapatinib] (partner 2 µM)
Outline: (§1)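 Lung cancer cell lines in 1536-well plates got either a single drug or a fixed anchor-drug dose together with five library-drug doses (not always all listed) in √10 steps, by pin tool, on the day after seeding. Nuclei were counted after 5 days, and relative viability is the treated-to-vehicle ratio of nuclei counts. Values are medians of duplicate plates.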

[1] = compound: CC1=NN=C(O1)C2=NN=C(C=C2)N3CCC(CC3)OC4=C(C=CC(=C4)F)Cl + Cc1cc(Nc2cc(N3CCN(C)CC3)nc(Sc3ccc(NC(=O)C4CC4)cc3)n2)n[nH]1 [Tozasertib] (partner 0.1 µM)
Outline: as §1

[2] = compound: CC1=NN=C(O1)C2=NN=C(C=C2)N3CCC(CC3)OC4=C(C=CC(=C4)F)Cl + Cc1nc(NC(=O)N2CCC[C@H]2C(N)=O)sc1-c1ccnc(C(C)(C)C(F)(F)F)c1 [Alpelisib] (partner 2 µM)
Outline: as §1

[3] = compound: CC1=NN=C(O1)C2=NN=C(C=C2)N3CCC(CC3)OC4=C(C=CC(=C4)F)Cl + O=C(c1cc(Cc2n[nH]c(=O)c3ccccc23)ccc1F)N1CCN(C(=O)C2CC2)CC1 [Olaparib] (partner 8 µM)
Outline: as §1

| Cell Line | relative viability (Tosedostat + Lapatinib; first compound 0.02 µM) | relative viability (Tosedostat + Lapatinib; first compound 0.06325 µM) | relative viability (Tosedostat + Lapatinib; first compound 0.2 µM) | relative viability (Tosedostat + Lapatinib; first compound 0.6325 µM) | relative viability (Tosedostat + Lapatinib; first compound 2 µM) | relative viability ([1]; first compound 0.253 µM) | relative viability ([1]; first compound 0.8 µM) | relative viability ([1]; first compound 2.53 µM) | relative viability ([1]; first compound 8 µM) | relative viability ([2]; first compound 0.253 µM) | relative viability ([2]; first compound 0.8 µM) | relative viability ([2]; first compound 2.53 µM) | relative viability ([2]; first compound 8 µM) | relative viability ([3]; first compound 0.253 µM) | relative viability ([3]; first compound 0.8 µM) | relative viability ([3]; first compound 2.53 µM) | relative viability ([3]; first compound 8 µM) |
| --- | --- | --- | --- | --- | --- | --- | --- | --- | --- | --- | --- | --- | --- | --- | --- | --- | --- |
| HCC-827 | 0.185 | 0.196 | 0.203 | 0.189 | 0.159 | 0.174 | 0.161 | 0.171 | 0.144 | 0.492 | 0.358 | 0.492 | 0.476 | 0.396 | 0.242 | 0.401 | 0.386 |
| HOP-62 | 1.08 | 0.935 | 1.08 | 0.891 | 0.983 | 0.296 | 0.288 | 0.205 | 0.222 | 0.791 | – | 0.609 | 0.505 | 0.388 | 0.116 | 0.192 | 0.279 |
| IA-LM | 0.885 | 0.925 | 0.61 | 0.746 | 0.645 | – | – | – | – | 0.156 | 0.157 | 0.137 | 0.157 | 0.114 | 0.12 | 0.131 | 0.121 |
| LC-2-ad | 1.02 | 0.981 | 0.993 | 0.909 | 1.04 | 0.38 | 0.354 | 0.359 | 0.344 | 0.429 | 0.371 | 0.382 | 0.341 | 0.297 | 0.257 | 0.255 | 0.238 |
| LCLC-97TM1 | 0.951 | – | – | 0.641 | 0.766 | 0.182 | 0.137 | 0.172 | 0.207 | 0.28 | – | 0.237 | 0.292 | 0.369 | – | 0.267 | 0.258 |
| LCLC-103H | – | – | – | – | – | 0.411 | 0.362 | 0.356 | 0.324 | 0.792 | 0.946 | 0.775 | 0.776 | 0.512 | 0.509 | 0.514 | 0.465 |
| LK-2 | 0.958 | 0.971 | 0.892 | 0.995 | 1.2 | 0.171 | 0.176 | 0.176 | 0.134 | 1.03 | 1.01 | 1.17 | 1.23 | 0.757 | 0.58 | 0.655 | 0.672 |
| LOU-NH91 | 0.8 | 0.88 | 0.875 | 0.868 | 0.778 | 0.585 | 0.587 | 0.664 | 0.677 | – | 0.649 | 0.713 | 0.726 | – | 0.818 | 0.879 | 0.883 |
| LU99A | 1.02 | 1.08 | 0.76 | 0.813 | 0.869 | 0.279 | 0.271 | 0.268 | 0.287 | 0.547 | 0.526 | 0.559 | 0.495 | 0.214 | 0.294 | 0.277 | 0.299 |
| LXF-289 | 0.967 | 0.883 | 0.935 | 0.868 | 0.92 | 0.181 | 0.141 | 0.179 | 0.131 | 0.783 | 0.789 | 0.744 | 0.67 | 0.829 | 0.632 | 0.902 | 0.788 |
| NCI-H23 | 1.23 | 1.06 | 0.958 | 1 | 0.628 | 0.312 | – | 0.275 | 0.46 | 0.635 | – | 0.663 | 0.822 | 0.164 | 0.272 | 0.327 | 0.302 |
| NCI-H322M | 0.665 | 0.577 | 0.542 | 0.55 | 0.446 | 0.488 | 0.482 | 0.422 | 0.436 | 0.0721 | 0.707 | 0.7 | 0.747 | 0.746 | 0.724 | 0.817 | 0.732 |
| NCI-H358 | 0.514 | 0.454 | 0.374 | 0.407 | 0.456 | 0.107 | 0.0958 | 0.116 | 0.0977 | 0.72 | 0.829 | 0.778 | 0.822 | 0.296 | 0.275 | 0.321 | 0.26 |
| NCI-H441 | – | – | – | – | – | 0.457 | 0.388 | 0.423 | 0.419 | 0.826 | 0.674 | 0.542 | 0.532 | 0.355 | 0.353 | 0.349 | 0.383 |
| NCI-H522 | – | – | – | – | – | 0.576 | 0.578 | 0.558 | 0.534 | – | – | – | – | 0.694 | 0.566 | 0.664 | 0.686 |
| NCI-H1299 | 1.02 | 0.954 | 0.96 | 0.951 | 0.892 | – | – | – | – | 0.939 | 0.877 | 0.971 | 0.868 | 0.741 | 0.722 | 0.717 | 0.664 |
| NCI-H1563 | 1.03 | 1.03 | 0.957 | 0.956 | 1.05 | – | – | – | – | 1 | 0.952 | 0.999 | 1.09 | – | – | – | – |
| NCI-H1623 | – | – | – | – | – | 0.322 | 0.435 | 0.372 | 0.385 | – | – | – | – | – | – | – | – |
| NCI-H1648 | – | – | – | – | – | 0.242 | 0.325 | 0.293 | 0.344 | – | – | – | – | 0.459 | 0.574 | 0.406 | 0.618 |
| NCI-H1650 | 0.983 | 0.828 | 0.863 | 0.997 | 0.918 | – | 0.357 | 0.361 | 0.235 | – | – | – | – | 0.516 | 0.645 | 0.642 | 0.597 |
| NCI-H1703 | 1.35 | 1 | 1.02 | 0.743 | 0.943 | – | – | – | – | 0.313 | 0.388 | 0.337 | 0.395 | 0.341 | 0.438 | 0.448 | 0.609 |
| NCI-H1792 | 0.988 | 1.04 | 0.878 | 0.863 | 0.823 | – | – | – | – | 0.397 | 0.432 | 0.264 | 0.448 | 0.264 | 0.376 | 0.337 | 0.364 |
| NCI-H2342 | – | – | – | – | – | 0.356 | 0.411 | 0.417 | 0.404 | – | – | – | – | 0.305 | 0.309 | 0.369 | 0.363 |
| SW 900 | – | – | – | – | – | – | – | 0.415 | 0.477 | – | – | – | – | – | 0.801 | 0.776 | 0.802 |
